These results are taken from patent US8785457B2 (Cellzome Limited, priority 2009, dated 2014).

The test system of series [1] is Escherichia coli strain WP2uvrA(pKM101). The series is described as follows: Ames plate assay, WP2uvrA(pKM101). As for the experimental part: (§1) Certain compounds of the invention were tested for their potential to induce gene mutations in bacterial strains of Salmonella typhimurium (strains TA1535, TA1537, TA98, TA100) and Escherichia coli (strain WP2uvrA(pKM101)) in a bacterial mutation assay in the absence and presence of metabolite activation (rat S9-mix). Compounds are tested at the following dose levels: 50, 150, 500, or 1500 μg/plate.
(§2) Vehicle control treatment is the vehicle used to prepare the test compound formulation diluted to the same extent as the test compound solution. Positive controls using known mutagens are included for each strain with and without rat S9 mix. Four plates are used for the vehicle control and two replicate plates per dose per strain for the treated groups and for each positive control. At the end of incubation the number of revertant colonies per plate are recorded and mean values calculated for each vehicle control, positive control and concentration of test compound used. Results are also expressed as a ratio of the mean values to the mean concurrent vehicle control value (i.e. fold increase).

Series [2] concerns S6RP serine-240/244 phosphorylation. The series is described as follows: In vitro Phospho-S6 cellular assay (pS6RP S240/244) in HEK293T/17 cells. Type of series: cell-based. The following applies: Homo sapiens, 2 hours, read-out: pS6 IC50. Summed up: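 Compounds were tested at eight concentrations on adhered HEK293T/17 cells for 2 h at 37 °C (2% FCS, 0.1% DMSO), at 80,000 cells/well for pAkt S473 and 40,000 for pS6RP S240/244. Lysates were captured on phospho-specific antibody MSD plates with Sulfo-Tag detection. Values came from nonlinear variable-slope regression.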

Series [3] has as its system Akt serine-473 phosphorylation. The series is described as follows: In vitro Phospho-Akt cellular assay (pAkt S473) in HEK293T/17 cells. Type of series: cell-based. To be noted: Homo sapiens, 2 hours. The source says: Activation of mTOR signaling results in phosphorylation of several downstream targets. In cells, mTOR exists in two different protein complexes. The mTOR Complex-1 (mTORC1) phosphorylates and activates S6 Kinase 1 (S6K1) and S6 Kinase 2 (S6K2) (also known as p70S6K) which then phosphorylate S6 Ribosomal Protein (S6RP) (also known as RPS6)3. S6RP is phosphorylated on serine 235, serine 236, serine 240 and serine 244 by both pS6K1 and pS6K2. The mTOR Complex-2 (mTORC2) phosphorylates AKT on serine 473 which activates the AKT signaling pathway.
The assay measures a test compound's inhibition of S6RP serine-240/244 phosphorylation and inhibition of Akt serine-473 phosphorylation in human embryonic kidney derived HEK293T/17 cells (ATCC CRL-11268).
The HEK293T/17 cell line is maintained in DMEM media (Invitrogen catalogue number 41965-039) supplemented with 10% FCS at 37° C. in a 5% CO2 humidified incubator.
Cells are seeded in 96-well plates at 40,000 cells/well (pS6RP S240/244 assay) or 80,000 cells/well (pAkt S473 assay) in 90 μl growth media (DMEM, 2% FCS). Plates are incubated for 1 hour in a humidified incubator to allow the cells to adhere. Cells are treated with 8 concentrations of test compounds or DMSO alone for controls (final DMSO concentration 0.1%) and incubated at 37° C. for 2 hours. Then 20 μl of 5× concentrated lysis buffer (750 mM NaCl, 100 mM Tris pH7.4, 5 mM ADTA, 5 mM EGTA, 5% Triton X-100) is added, plates are sealed and incubated for 15 minutes at 4° C. with gentle shaking. After cell lysis, 25 μl cell lysate is transferred to a MesoScale plate coated with an antibody to pS6RP Ser240/244 (MesoScale Discovery K150DGD-3) or an antibody to pAkt Ser 473 (MesoScale Discovery K151DGD-3). Plates have been blocked before by incubation with 150 μl MesoScale Discovery Blocking Solution-A for 1 hour at room temperature followed by washing with 150 μl 1× Tris wash buffer per well. After the transfer of the cell lysate to the MSD plate, the pS6RP (or pAkt) protein is captured on the coated antibody by incubation at room temperature for 1 hour with gentle shaking. After the capture step the plate is washed three times with 150 μl of 1× Tris wash buffer per well. Then 25 μl detection antibody conjugated with a Sulfo-Tag is added and incubated for 1 hour at room temperature with gentle shaking. Subsequently the antibody solution is removed and the plate is washed 3 times with 150 μl×Tris wash buffer per well and 150 μl Read buffer is added. The plates are analysed on a MSD 2400 Plate Reader (MesoScale Discovery). Data analysis is performed using nonlinear regression for a sigmoidal dose-response with a variable slope.

Series [4] relates to Salmonella typhimurium strain TA1535. The series is described as follows: Ames plate assay, TA1535. As for the experimental part: as §1, §2
Series [5] relates to Salmonella typhimurium strain TA100. The series is described as follows: Ames plate assay, TA100. The method, then:
as §1, §2

Structures are written as SMILES.

On to `CCOC(=O)N1Cc2nc(-c3ccc(NC(=O)NC4CC4)cc3)nc(N3CCOC[C@@H]3C)c2C1` [Example 34, (S)-ethyl 2-(4-(3-cyclopropylureido)phenyl)-4-(3-methylmorpholino)-5H-pyrrolo[3,4-d]pyrimidine-6(7H)-carboxylate], for which the “Ames plate assay WP2uvrA (pKM101) +S9” value in series [1] (+S9, 50 μg/Plate) is listed as “−”; in series [1] (+S9, 150 μg/Plate), “−”; in series [1] (+S9, 500 μg/Plate) it was “−”; in series [1] (+S9, 1500 μg/Plate), “−”. The “Ames plate assay WP2uvrA (pKM101) −S9” value is listed as “−” in series [1] (−S9, 50 μg/Plate); “−” in series [1] (−S9, 150 μg/Plate); “−” in series [1] (−S9, 500 μg/Plate); “−” in series [1] (−S9, 1500 μg/Plate). Besides, the results for the IC50 in series [2] and in series [3] were 49 nM and 21 nM, respectively. The “Ames plate assay TA1535 +S9” value in series [4] (TA1535, +S9, 50 μg/Plate) is “−”; in series [4] (TA1535, +S9, 150 μg/Plate), “−”; in series [4] (TA1535, +S9, 500 μg/Plate), “−”; in series [4] (TA1535, +S9, 1500 μg/Plate), “−”. The “Ames plate assay TA1535 −S9” value in series [4] (TA1535, −S9, 50 μg/Plate) is given as “−”; in series [4] (TA1535, −S9, 150 μg/Plate) it was “−”; in series [4] (TA1535, −S9, 500 μg/Plate), “−”; in series [4] (TA1535, −S9, 1500 μg/Plate), “−”. Besides, the “Ames plate assay TA100 +S9” value in series [5] (TA100, +S9, 50 μg/Plate) is “−”; in series [5] (TA100, +S9, 150 μg/Plate) it was “−”; in series [5] (TA100, +S9, 500 μg/Plate), “−”; in series [5] (TA100, +S9, 1500 μg/Plate), “−”. Besides, the “Ames plate assay TA100 −S9” value in series [5] (TA100, −S9, 50 μg/Plate) is on record as “−”; in series [5] (TA100, −S9, 150 μg/Plate), “−”; in series [5] (TA100, −S9, 500 μg/Plate), “−”; in series [5] (TA100, −S9, 1500 μg/Plate), “−”.

In the case of `CCOC(=O)N1Cc2nc(-c3ccc(NC(=O)NCCF)cc3F)nc(N3CCOCC3)c2C1` [Example 170, ethyl 2-(2-fluoro-4-(3-(2-fluoroethyl)ureido)phenyl)-4-morpholino-5H-pyrrolo[3,4-d]pyrimidine-6(7H)-carboxylate], the IC50 in series [2] turned out to be 105 nM; in series [3] it was 54 nM.

As a reminder, the IC50 is the concentration that gives 50% inhibition.
